Here are results for 13 compounds from patent US12209102B2, “Heterocyclic compounds and uses thereof” (Kumquat Biosciences Inc., priority 2022, dated 2025).

By IC50 is commonly meant the midpoint of a concentration-inhibition curve.

SMILES strings stand for the structures. Some results are limits rather than exact numbers.

The target of test [1] is T1, K-Ras G12D (Homo sapiens, UniProt P01116, G12D).
T1 construct: made in house; host or cells: E. coli BL21 (DE3)
Description: HTRF resonance energy transfer assay, K-Ras G12D / SOS1 interaction. The test is classed as biochemical. The note with it: HTRF assay of Example 5; read-out: IC50 against K-Ras G12D. The method, boiled down: (§1)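 GST-tagged K-Ras (WT or mutant) bound to anti-GST-Eu donor was mixed with His-hSOS1 bound to anti-6His-XL665 acceptor in ~5 mM HEPES pH 7.4, 150 mM NaCl, 1 mM DTT, 0.05% BSA, 0.0025% Igepal. HTRF (ex 337, em 620/665 nm) was read after ~10 min or longer. IC50 came from the 665/620 ratio over duplicates from 10 μM to 0.01 μM.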

The target in test [2] is T2, K-Ras G12V (Homo sapiens, UniProt P01116, G12V).
T2 construct: made in house; host or cells: E. coli BL21 (DE3)
T2 sequence (P01116 1-188 isoform P01116-2 G12V): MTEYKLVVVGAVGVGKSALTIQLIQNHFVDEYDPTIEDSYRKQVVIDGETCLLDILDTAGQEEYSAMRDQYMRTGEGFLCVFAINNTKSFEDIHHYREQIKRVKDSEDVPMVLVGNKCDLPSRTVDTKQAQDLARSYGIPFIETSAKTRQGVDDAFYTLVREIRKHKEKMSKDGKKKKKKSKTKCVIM
Description: HTRF resonance energy transfer assay, K-Ras G12V / SOS1 interaction. Type of test: biochemical. The note with it: HTRF assay of Example 5; read-out: IC50 against K-Ras G12V. The method, boiled down:
as §1
On the technique in general: Time-resolved FRET reads energy transfer from a long-lived donor to a nearby acceptor.

The target of test [3] is T3, K-Ras WT (Homo sapiens, UniProt P01116).
T3 construct: made in house; host or cells: E. coli BL21 (DE3)
T3 sequence (P01116 1-188 isoform P01116-2): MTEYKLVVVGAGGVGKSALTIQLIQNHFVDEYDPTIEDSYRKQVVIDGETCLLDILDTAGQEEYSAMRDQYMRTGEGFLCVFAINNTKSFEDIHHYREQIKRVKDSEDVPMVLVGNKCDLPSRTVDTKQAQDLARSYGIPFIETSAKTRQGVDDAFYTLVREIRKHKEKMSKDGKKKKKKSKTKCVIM
Description: HTRF resonance energy transfer assay, K-Ras WT / SOS1 interaction. The test is classed as biochemical. The note with it: HTRF assay of Example 5; read-out: IC50 against K-Ras WT. Summed up: as §1

The test system of test [4] is SW620 cells. Description: Ras cellular assay, growth of cells with K-Ras G12V mutation (CellTiter-Glo). The test is classed as cell-based. The note with it: Homo sapiens, SW-620; cell growth, Example 9, G12V mutation; read-out: IC50 against SW620 cells. The protocol:
For example, this assay can be also used to assess a selective growth inhibition of a mutant Ras protein relative to a wildtype, or relative to a different mutant Ras protein.
SW620 (ATCC CCL-227) and Capan-1 (ATCC HTB-79) cell lines comprise a G12V mutation and can be used to assess Ras cellular signaling in vitro, e.g., in response to the compounds herein. SW620 culture medium is prepared with RPMI-1640 and 10% heat-inactivated FBS. Capan-1 culture medium is prepared with RPMI-1640 and 10% heat-inactivated FBS. A CellTiter-Glo (CTG) luminescent based assay (Promega) is used to assess growth of the cells, as a measurement of the ability of the compounds herein to inhibit Ras signaling in the cells. The cells (e.g., 800 per well) are seeded in their respective culture medium in standard tissue culture-treated 384-well format plates (Falcon #08-772-116) or ultra-low attachment surface 384-well format plates (S-Bio #MS-9384WZ). The day after plating, cells are treated with a dilution series (e.g., a 10 point 3-fold dilution series) of the compounds herein (e.g., approximately 40 μL final volume per well). Cell viability can be monitored (e.g., approximately 6 days later) according to the manufacturer's recommended instructions, where the CellTiter-Glo reagent is added (e.g., approximately 10 μL), vigorously mixed, covered, and placed on a plate shaker (e.g., approximately for 20 min) to ensure sufficient cell lysis prior to assessment of luminescent signal. The IC50 values are determined using the four parameter fit. The resulting IC50 value is a measurement of the ability of the compounds herein to reduce cell growth of Ras-driven cells (e.g., tumor cell lines) in vitro and/or in vivo.
On the technique in general: Cellular ATP, detected with luciferase, serves as a proxy for viable cell number.

In test [5] the target is T4, K-Ras G12S (Homo sapiens, UniProt P01116, G12S).
T4 construct: made in house; host or cells: E. coli BL21 (DE3)
T4 sequence (P01116 1-188 isoform P01116-2 G12S): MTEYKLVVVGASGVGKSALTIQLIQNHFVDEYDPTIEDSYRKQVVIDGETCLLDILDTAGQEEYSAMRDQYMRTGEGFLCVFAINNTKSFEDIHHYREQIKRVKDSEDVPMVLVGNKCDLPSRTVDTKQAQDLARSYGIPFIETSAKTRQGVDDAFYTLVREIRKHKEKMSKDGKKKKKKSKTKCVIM
Description: HTRF resonance energy transfer assay, K-Ras G12S / SOS1 interaction. The note with it: HTRF assay of Example 5; read-out: IC50 against K-Ras G12S. Type of test: biochemical. Summed up:
as §1

T1 sequence (P01116 1-188 isoform P01116-2 G12D): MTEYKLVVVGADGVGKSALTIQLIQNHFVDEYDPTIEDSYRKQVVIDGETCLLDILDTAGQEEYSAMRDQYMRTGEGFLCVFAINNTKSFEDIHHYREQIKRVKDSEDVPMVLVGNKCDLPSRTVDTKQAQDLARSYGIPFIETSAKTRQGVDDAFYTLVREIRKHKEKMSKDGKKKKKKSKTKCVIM

Turning to `N#Cc1c(N)sc2c(F)ccc(-c3c(Cl)c4c5c(nc(OC[C@@]67CCCN6C[C@H](F)C7)nc5c3F)N(CC(F)F)C(CC3CC3C#N)CO4)c12` (single isomer, unassigned) [Compound 674], the IC50 in test [1] was under 100 nM; in test [2], under 100 nM; in test [3], under 100 nM; in test [4], under 5 µM.
Consider `N#Cc1c(N)sc2c(F)ccc(-c3c(Cl)c4c5c(nc(OC[C@@]67CCCN6C[C@H](F)C7)nc5c3F)N(C3CCOC3)[C@@H](C(F)F)CO4)c12` (stereo partly drawn) [Compound 747, 2-amino-4-((5R)-8-chloro-5-(difluoromethyl)-10-fluoro-2-(((2R,7aS)-2-fluorotetrahydro-1H-pyrrolizin-7a(5H)-yl)methoxy)-4-(tetrahydrofuran-3-yl)-5,6-dihydro-4H-[1,4]oxazepino[5,6,7-de]quinazolin-9-yl)-7-fluorobenzo[b]thiophene-3-carbonitrile], for which the concentration for half-maximal inhibition (IC50) in test [4] is under 5 µM.
Take `N#Cc1c(N)sc2c(F)ccc(-c3c(Cl)c4c5c(nc(OC[C@@]67CCCN6C[C@H](F)C7)nc5c3F)N(CC(F)F)C(C3CCCN3)CO4)c12` (stereo partly drawn) [Compound 784, 2-amino-4-(8-chloro-4-(2,2-difluoroethyl)-10-fluoro-2-(((2R,7aS)-2-fluorotetrahydro-1H-pyrrolizin-7a(5H)-yl)methoxy)-5-(pyrrolidin-2-yl)-5,6-dihydro-4H-[1,4]oxazepino[5,6,7-de]quinazolin-9-yl)-7-fluorobenzo[b]thiophene-3-carbonitrile]: the IC50 in test [1] is under 100 nM; in test [2] it was under 100 nM; in test [4], under 5 µM.
Regarding `CS(=O)(=O)NCC1COc2c(Cl)c(-c3ccc(F)c4sc(N)c(C#N)c34)c(F)c3nc(OC[C@@]45CCCN4C[C@H](F)C5)nc(c23)N1CC(F)F` (stereo partly drawn) [Compound 847, N-((9-(2-amino-3-cyano-7-fluorobenzo[b]thiophen-4-yl)-8-chloro-4-(2,2-difluoroethyl)-10-fluoro-2-(((2R,7aS)-2-fluorotetrahydro-1H-pyrrolizin-7a(5H)-yl)methoxy)-5,6-dihydro-4H-[1,4]oxazepino[5,6,7-de]quinazolin-5-yl)methyl)methanesulfonamide], the IC50 is under 100 nM in test [2] and under 5 µM in test [4].
Turning to `C[C@H]1CN(CC2(N(C)C)CCC2)c2nc(OC[C@@]34CCCN3C[C@H](F)C4)nc3c(F)c(-c4ccc(F)c5sc(N)c(C#N)c45)c(Cl)c(c23)O1` [Compound 978, 2-amino-4-((6S)-8-chloro-4-((1-(dimethylamino)cyclobutyl)methyl)-10-fluoro-2-(((2R,7aS)-2-fluorotetrahydro-1H-pyrrolizin-7a(5H)-yl)methoxy)-6-methyl-5,6-dihydro-4H-[1,4]oxazepino[5,6,7-de]quinazolin-9-yl)-7-fluorobenzo[b]thiophene-3-carbonitrile], the IC50 in test [5] was under 100 nM; in test [2] it was under 100 nM; in test [4], under 5 µM.
Regarding `N#Cc1c(N)sc2c(F)ccc(-c3c(Cl)c4c5c(nc(OC[C@@]67CCCN6C[C@H](F)C7)nc5c3F)N(C3CCCCN(C(=O)C5CN5)C3)CCO4)c12` (stereo partly drawn) [Compound 992, 2-amino-4-(4-(1-(aziridine-2-carbonyl)azepan-3-yl)-8-chloro-10-fluoro-2-(((2R,7aS)-2-fluorotetrahydro-1H-pyrrolizin-7a(5H)-yl)methoxy)-5,6-dihydro-4H-[1,4]oxazepino[5,6,7-de]quinazolin-9-yl)-7-fluorobenzo[b]thiophene-3-carbonitrile], in test [4], the IC50 was under 5 µM.
Still for that read-out and setting: with `N#Cc1c(N)sc2c(F)ccc(-c3c(Cl)c4c5c(nc(OC[C@@]67CCCN6C[C@H](F)C7)nc5c3F)N(CC(F)F)[C@@H](C3(O)CC3)CO4)c12` [Compound 1001, 2-amino-4-((R)-8-chloro-4-(2,2-difluoroethyl)-10-fluoro-2-(((2R,7aS)-2-fluorotetrahydro-1H-pyrrolizin-7a(5H)-yl)methoxy)-5-(1-hydroxycyclopropyl)-5,6-dihydro-4H-[1,4]oxazepino[5,6,7-de]quinazolin-9-yl)-7-fluorobenzo[b]thiophene-3-carbonitrile] the figure was under 5 µM.
Consider `C#C[C@H]1COc2c(Cl)c(-c3ccc(F)c4sc(N)c(C#N)c34)c(F)c3nc(OC[C@@]45CCCN4C[C@H](F)C5)nc(c23)N1CC(F)F` [Compound 1075, 2-amino-4-((5S)-8-chloro-4-(2,2-difluoroethyl)-5-ethynyl-10-fluoro-2-(((2R,7aS)-2-fluorotetrahydro-1H-pyrrolizin-7a(5H)-yl)methoxy)-5,6-dihydro-4H-[1,4]oxazepino[5,6,7-de]quinazolin-9-yl)-7-fluorobenzo[b]thiophene-3-carbonitrile], for which the IC50 in test [1], in test [5], in test [2] and in test [3] was under 100 nM throughout.
As for `CS(=O)(=O)N1CC1C(=O)NCCN1CCOc2c(Cl)c(-c3ccc(F)c4sc(N)c(C#N)c34)c(F)c3nc(OC[C@@]45CCCN4C[C@H](F)C5)nc1c23` (stereo partly drawn) [Compound 1077, N-(2-(9-(2-amino-3-cyano-7-fluorobenzo[b]thiophen-4-yl)-8-chloro-10-fluoro-2-(((2R,7aS)-2-fluorotetrahydro-1H-pyrrolizin-7a(5H)-yl)methoxy)-5,6-dihydro-4H-[1,4]oxazepino[5,6,7-de]quinazolin-4-yl)ethyl)-1-(methylsulfonyl)aziridine-2-carboxamide], the IC50 in test [1], in test [5], in test [2] and in test [3] was under 100 nM each time.
On to `N#Cc1c(N)sc2c(F)ccc(-c3c(Cl)c4c5c(nc(OC[C@@]67CCCN6C[C@H](F)C7)nc5c3F)N(CC(F)F)[C@@H](C3CC3C#N)CO4)c12` (stereo partly drawn) [Compound 1078, 2-amino-4-((5S)-8-chloro-5-(2-cyanocyclopropyl)-4-(2,2-difluoroethyl)-10-fluoro-2-(((2R,7aS)-2-fluorotetrahydro-1H-pyrrolizin-7a(5H)-yl)methoxy)-5,6-dihydro-4H-[1,4]oxazepino[5,6,7-de]quinazolin-9-yl)-7-fluorobenzo[b]thiophene-3-carbonitrile], for which the IC50 in test [1], in test [5], in test [2] and in test [3] was under 100 nM in each case.
On to `N#Cc1c(N)sc2c(F)ccc(-c3c(Cl)c4c5c(nc(OC[C@@]67CCCN6C[C@H](F)C7)nc5c3F)N(CC(F)F)C(C3CNC3)CO4)c12` (stereo partly drawn) [Compound 1131, 2-amino-4-(5-(azetidin-3-yl)-8-chloro-4-(2,2-difluoroethyl)-10-fluoro-2-(((2R,7aS)-2-fluorotetrahydro-1H-pyrrolizin-7a(5H)-yl)methoxy)-5,6-dihydro-4H-[1,4]oxazepino[5,6,7-de]quinazolin-9-yl)-7-fluorobenzo[b]thiophene-3-carbonitrile], for which the IC50 in test [1], in test [5], in test [2] and in test [3] was under 100 nM throughout.
On to `N#Cc1c(N)sc2c(F)ccc(-c3c(Cl)c4c5c(nc(OC[C@@]67CCCN6C[C@H](F)C7)nc5c3F)N(CC3(N)CCC3)CCCO4)c12` [Compound 1213, 2-amino-4-(4-((1-aminocyclobutyl)methyl)-9-chloro-11-fluoro-2-(((2R,7aS)-2-fluorotetrahydro-1H-pyrrolizin-7a(5H)-yl)methoxy)-4,5,6,7-tetrahydro-[1,5]oxazocino [4,3,2-de]quinazolin-10-yl)-7-fluorobenzo[b]thiophene-3-carbonitrile], for which the IC50 in test [1], in test [5], in test [2] and in test [3] was under 100 nM throughout.
Consider `N#Cc1c(N)sc2c(F)ccc(-c3c(Cl)c4c5c(nc(OC[C@@]67CCCN6C[C@H](F)C7)nc5c3F)NCCC(CO)O4)c12` (stereo partly drawn) [Compound 1214, 2-amino-4-(9-chloro-11-fluoro-2-(((2R,7aS)-2-fluorotetrahydro-1H-pyrrolizin-7a(5H)-yl)methoxy)-7-(hydroxymethyl)-4,5,6,7-tetrahydro-[1,5]oxazocino[4,3,2-de]quinazolin-10-yl)-7-fluorobenzo[b]thiophene-3-carbonitrile], for which the IC50 in test [1], in test [5], in test [2] and in test [3] was under 100 nM throughout.
